Test results reported in patent US20120157401A1, “METHODS FOR TREATING NEUROFIBROMATOSIS” (PTC Therapeutics, Inc., priority 2009, published 2012).
Entries after “also recorded” stand apart in the source; their conditions may differ. Marks after values point to notes of the source that are not given here.

Key:
tumor volume = assay: Patients: tumor volume by MRI; assay type: in vivo, human
Text: Antitumor activity: Previously used radiographic response and progression criteria (see, e.g., Widemann et al., J. Clin. Oncol., January 2006, 24(3):507-16; and di Tomaso, “Preliminary success with anti-angiogenic therapy of NF2-related tumors” (Meeting abstract) 2008 NF Conference, Children's Tumor Foundation, Bonita Springs, Fla., Jun. 6-10, 2008) can be used to evaluate the ability of a Compound to specifically induce tumor shrinkage.
Timing of Tumor Volume Assessment: Subjects may undergo tumor volume measurement at screening, and at various times throughout the treatment protocol.
Method of Assessment: The determination of antitumor efficacy may be based on objective tumor assessments made according to volumetric measurement (see Widemann et al., J Clin Oncol. 2006 Jan. 20; 24(3):507-16; di Tomaso et al., Preliminary success with anti-angiogenic therapy of NF2-related tumors. (Meeting abstract). 2008 NF Conference, Children's Tumor Foundation, Bonita Springs, Fla., Jun. 6-10, 2008; Harris et al., Neurosurgery. 2008 June 62(6): 1314-9) and treatment decisions by the physician can be based on these assessments.
The MRI examinations may be performed using a standard head coil with 1.5-T scanners. […] For VS quantitative assessment, the MRI scans may be transmitted to a Vitrea2 workstation (Vital Images, Minnetonka, Minn.) for image processing and volume calculation.

SY5Y xenografts = assay: SY5Y neuroblastoma subcutaneous xenograft: tumor growth; assay type: in vivo
Description: Experimental Design. SY5Y cells are derived from a human neuroblastoma, a childhood tumor arising in neural crest cells. SY5Y cells (1×10^7 cells/mouse) were implanted subcutaneously in male athymic nude mice.
Tumor size was measured by calipers at periodic intervals. When the average tumor size in a group exceeded 2000 mm^3, the mice in the group were sacrificed and excised tumors were assayed for intratumoral VEGF concentration as described in Section 9.1.1.1.

Human VEGF-A = assay: HT1080 xenograft selectivity studies: intratumoral VEGF-A ELISA; assay type: in vivo; settings: Study 5, 15-days, treatment initiated at ~600 mm^3
Text: Experimental Design. […] All of these factors can be produced at tumor sites, and all may support tumor growth and metastases. See Yoon et al., Circ Res. 2003, 93(2):87 90; Ferrara et al., Nat. Rev. Drug Discov. […] Biophys. Acta 2004,1654(1):79 94; Saharinen et al., Trends Immunol. 2004, 25(7):387 95. There is also evidence that VEGF-A may stimulate production of P1GF by a post transcriptional mechanism. See Yao et al., FEBS Lett. 2005, 579(5):1227 34. VEGF-B was not assessed. […] See Vagner at al., Mol. Cell. Biol. 1995, 15(1):35 44; Hellen et al., Genes Dev. 2001, 15(13):1593 612. The survivin protein was similarly evaluated because the survivin mRNA has an IRES. PDGF was assessed because this protein has angiogenic activity and its mRNA contains an IRES. See Sella et al., Mol. Cell. Biol. 1999, 19(8):5429 40; Hellen et al., supra. Endostatin was included because antiangiogenic treatment in vivo has shown that compensatory […] in endogenous angiogenic inhibitors such as endostatin, thrombospondin, and angiostatin, results in a more pro angiogenic environment. See Sim, Angiogenesis, 1998, 2(1):37-48.
In all of these experiments, HT1080 cells (5×10^6 cells/mouse) were implanted subcutaneously in male athymic nude mice. When tumors had become established, mice were divided into groups (10 mice/group). […] Tumor size was measured by calipers at the beginning and end of treatment. […]

[1] = test system: bacterial reverse mutation; assay: Bacterial reverse mutation study; assay type: cell-based; settings: with and without metabolic activation
Description: Genotoxicity was assessed in a battery of in vitro and in vivo studies that included a bacterial reverse mutation study, a chromosome aberration study in Chinese hamster ovary (CHO) cells, and a micronucleus study in rats by the oral route. The in vitro studies were performed in the presence and absence of an exogenous metabolic activation system.

[2] = test system: soluble VEGF121 and VEGF165 isoforms; assay: ELISA of soluble VEGF production in nontransformed keratinocytes during hypoxia or normoxia; assay type: cell-based, human; settings: 72 hours
Description: Experimental Design. Nontransformed normal human keratinocyte cell cultures were established under normoxic conditions (21% oxygen). […] At the completion of treatment, cells were assessed for viability with an ATP assay and conditioned media were evaluated for VEGF protein levels by ELISA (as described in Section 9.1.1.1).

physiological VEGF-A = assay: Phase 1 multiple-dose study: plasma and serum physiological VEGF-A concentrations; assay type: in vivo, human; settings: healthy volunteers, all doses tested
Text: Plasma VEGF Concentrations: Plasma and serum VEGF concentrations and concentration changes from baseline were presented descriptively.

T47D xenografts = assay: T47D estrogen-sensitive breast cancer xenograft: tumor growth
Description: Experimental Design. Estrogen pellets (0.72 mg/pellet) were implanted 30 days prior to cell implantation and again 60 days later. T47D estrogen-sensitive breast cancer cells (5×10^6 cells/mouse mixed 1:1 with […] ™) were implanted subcutaneously in female athymic nude mice. […] Tamoxifen was included as a positive control.
Tumor size was measured by calipers at periodic intervals. After 74 days of treatment, the mice were sacrificed.

CYPC19 = molecular target: T1, CYPC19 (Homo sapiens, UniProt P33261); assay: CYP inhibition: CYPC19; assay type: in vitro ADME; settings: human hepatic microsomes or recombinant isoenzymes
T1 construct: host or cells: human hepatic microsomes or recombinant isoenzyme (not distinguished)
T1 sequence (P33261 whole entry): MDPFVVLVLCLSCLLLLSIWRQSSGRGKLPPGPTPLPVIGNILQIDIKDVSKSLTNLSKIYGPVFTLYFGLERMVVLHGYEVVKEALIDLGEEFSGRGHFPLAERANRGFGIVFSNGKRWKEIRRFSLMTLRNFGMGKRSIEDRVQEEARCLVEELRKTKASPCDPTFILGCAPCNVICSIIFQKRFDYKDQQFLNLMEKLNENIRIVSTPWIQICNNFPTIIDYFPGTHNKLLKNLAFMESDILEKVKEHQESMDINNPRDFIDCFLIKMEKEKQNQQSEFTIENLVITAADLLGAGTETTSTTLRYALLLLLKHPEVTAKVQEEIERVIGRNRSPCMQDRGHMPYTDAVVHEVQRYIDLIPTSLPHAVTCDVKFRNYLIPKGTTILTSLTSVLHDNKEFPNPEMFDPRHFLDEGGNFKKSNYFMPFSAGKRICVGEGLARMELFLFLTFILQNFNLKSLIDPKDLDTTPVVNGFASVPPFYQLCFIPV
Text: It is possible that in certain clinical trial subjects, such agents may need to be adjusted for dosing or replaced by alternative agents that are not metabolized by CYP2D6, particularly when such agents may have a low therapeutic index.

[3] = 7-day oral toxicity study in dogs; assay type: in vivo
LNCaP xenografts = assay: LNCaP prostate cancer xenograft: tumor growth (Table 20); assay type: in vivo, athymic nude mice
Description: Experimental Design. The LNCaP cell line is derived from a lymph node metastasis.
Tumor size was measured by calipers at periodic intervals during the study. When the mean tumor size in a mouse exceeded 1500 mm^3, mice in that group were sacrificed and both tumor and plasma were assayed for pathologic VEGF concentration as described in Section 9.1.1.1.

[4] = Cardiovascular safety pharmacology in awake telemeterized dogs; assay type: in vivo, beagle dogs; settings: single oral doses of 30, 60, and 120 mg/kg, male dogs
[5] = 50 mg/kg QD, 5 days per week (Table 18)
[6] = LNCaP xenografts, male athymic nude mice, 10 mg/kg M-W-F oral gavage

COc1ccc(C2c3[nH]c4ccc(Cl)cc4c3CCN2C(=O)Oc2ccc(Cl)cc2)cc1 (racemic) [Compound #10]
Tumor volume, one patient (FIG. 40) (tumor volume): reducing and stabilizing tumor volume
Mean % Inhibition of Tumor Size vs Vehicle at Day 17 (SY5Y xenografts; [5]): 73* %
Median Time to Tumor Size ≧1000 mm^3 (SY5Y xenografts; [5]): 35 days
Toxicity on observing the animals (SY5Y xenografts; SY5Y xenograft mice): no evidence of toxicity
Decrease in intratumoral VEGF levels (Human VEGF-A): 78%
Genotoxic effects, bacterial reverse mutation [1]: no evidence of genotoxic effects
Maximal decrease in VEGF concentration in conditioned media ([2]; hypoxic (1% oxygen)): 57%
Mean VEGF concentration in conditioned media at maximal decrease ([2]; hypoxic (1% oxygen)): 606 pg/mL
Decrease in VEGF concentration in conditioned media ([2]; normoxic): 21%
Mean VEGF concentration in conditioned media in the presence of compound ([2]; normoxic): 192 pg/mL
Effect on plasma or serum physiological VEGF-A concentrations (physiological VEGF-A): no clear dose dependent effects; also recorded: No significant alterations
Mean % Inhibition of Tumor Size vs Vehicle at Day 74 (T47D xenografts; 10 mg/kg oral QD): 40%
Toxicity on observing the animals (T47D xenografts; T47D xenograft mice, 10 mg/kg QD, 74 days): no evidence of toxicity
Inhibition of CYPC19 (CYPC19): No meaningful inhibition
Dose of maximal exposures ([3]; 7 consecutive days): 30 mg/kg/dose BID
Treatment-related clinical findings ([3]; 7 days, males and females): increased incidence and frequency of soft stools
Time to tumor progression (time to reach ≧1000 mm^3) (LNCaP xenografts; 10 mg/kg M-W-F): prolonged
Toxicity on observing the animals (LNCaP xenografts; LNCaP xenograft mice): no evidence of toxicity
Mean % Inhibition of Tumor Size vs Vehicle at Day 35 (LNCaP xenografts; [6]): 36%
Median Time to Tumor Size ≧1000 mm^3 (LNCaP xenografts; [6]): 38 days
Changes in cardiovascular or electrocardiographic (including QT interval) parameters [4]: no meaningful changes
